Assay results reported in patent US6902726B1, “Reduction of odor gases from waste using plant-derived oils” (The United States of America as represented by the …, priority 2001, dated 2005).
In brackets after ≈: the same amount, converted by molar mass. Where two headings read alike, the source gives them in different places.

How the values were obtained:
stored cattle waste [1] = assay: VFA and L-lactate production from cattle waste in anoxic flasks, eugenol versus thymol; format: cell-based; conditions: for L-lactate production: cattle waste, eugenol at all concentrations evaluated
Method: Waste was collected and processed as in Example 1. The waste slurry was divided into 500-ml aliquots and eugenol or thymol were added directly at the desired concentration. The slurry was blended 1 min to provide a homogeneous mixing of the antimicrobial oils and poured into a 1-liter Erlenmeyer flask, which was sealed with a rubber stopper and left stationary at ambient temperature (25° C.). Treatments were in triplicate, and the contents of the flask were gently swirled before being sampled at the times indicated. Short-chain volatile fatty acids and L-lactate in the flasks were determined as described in Example 1. […] This is a desirable effect in some cases because it rapidly lowers the pH which contributes to inhibiting the overall fermentation of the wastes, and more ammonia nitrogen will be retained in the wastes.

stored swine waste [2] = assay: fermentation of stored swine waste in anoxic flasks (gas, VFA, L-lactate, pH); format: cell-based; conditions: for methane detected: 13.3 mM, after 20 days; for gas production / production of propionate / production of valerate, isovalerate, isobutyrate and cresol: carvacrol or thymol at 13.3 or 16.75 mM, or combination to equal 16.75 mM; for lactate accumulation: oil added to swine waste; for concentration required to suppress most fermentation activity: swine waste slurry, same ratio (50:35:15)
Method: Swine waste was processed similarly to the method described in Example 1. Fecal waste was randomly collected within 15 min of being excreted from animals fed a finishing diet of 85% corn and 11% soybean meal. Swine urine was collected from catheterized animals. Feces, urine, and distilled water in the ratio 50:35:15 were blended (Waring Inc., New Hartford, Conn.) for 1 min. Four replicate samples were obtained from this slurry and analyzed for various parameters and were considered as time 0. The waste slurry was divided into 500 ml aliquots and antimicrobial plant oils were added directly at the desired concentration, with one exception, in which carvacrol was dissolved 1:1 v:v in 95% ethanol, or 2 ml carvacrol/ethanol addition in these 500 ml slurries. The slurry was blended 1 min to provide a homogenous mixing of the antimicrobial oils and poured into 1-liter Erlenmeyer flasks, which were gassed with nitrogen (also after each sampling), sealed with a rubber stopper and left stationary at ambient temperature (25° C.). Treatments were in duplicate, and the contents of the flasks were gently swirled before being sampled at the days indicated in FIGS. 3-5. Gas volume and composition were analyzed in these flasks (anoxic slurry).
Head space gas was measured by displacement of a water-lubricated glass piston in a 50 ml syringe [Miller, T. L. et al. (1974), Appl Environ 27:985-987]. A 20-gauge needle with a Leurlok was inserted through the stopper, and a three-way valve was attached to the needle to allow gas volume to be periodically determined. Methane and hydrogen were analyzed as previously described [Varel, V. H. et al. (2000), Curr Microbiol 40:392-397].
(§1) A 15-ml waste sample was collected from each flask. The sample was mixed with 15 ml of 0.5 M H2SO4, centrifuged at 2000×g for 20 min at 4° C., and stored at −20° C. until analyzed [Varel, V. H. et al. (1999), J Anim Sci 77:1162-1168]. L-Lactate concentrations were determined with a membrane-immobilized system involving lactate oxidase (Model 27, Yellow Springs Instrument Co., Yellow Springs, Ohio, USA). Short-chain volatile fatty acids (VFAs; acetate, propionate, butyrate, valerate, isobutyrate, isovalerate) and aromatic compounds (cresol, indole, skatole, 4-ethylphenol, phenol) were determined in an aliquot from the original acidified sample. After thawing, the sample was centrifuged at 5° C., 10,000×g for 5 min. A 0.5 ml aliquot of the supernatant was combined with an internal standard, ethyl butyrate (0.25 mM final concentration), the sample was acidified with 0.4 ml of 3 M HC1, 0.8 ml ethyl ether was added, the sample was shaken vigorously for 1 min, and centrifuged at 5° C., 16,000×g for 1 min, and the ether phase was analyzed. To determine carvacrol and thymol concentrations, an aliquot of the original acidified sample which was not centrifuged, was treated as indicated above and extracted with ether twice. […] Aromatic, VFAs, thymol and carvacrol were analyzed with a Hewlett Packard 6890 gas chromatograph equipped with a flame ionization detector and a Hewlett Packard 5973 mass selective detector. Compounds were separated on a 30 m×0.32 mm diameter (0.5 μm film thickness) Innowax PEG column using the following program parameters: flow rate was 1.9 ml min^−1, initial temperature was 140° C., initial time was 3 min with a temperature ramp of 7.5° C. min^−1, with a final temperature of 230° C. for 4 min. Injector and detector temperatures were 250° C. Data were analyzed as a split-plot in time with the GLM procedure of (SAS).

stored cattle waste [3] = assay: fermentation of stored cattle waste in open wide-mouthed jars (VFA, butyrate); format: cell-based; conditions: for production of short-chain volatile fatty acids: 13.3 mM individually, 56 days, versus combination of the two oils (6.7 mM each); for concentration that suppressed essentially all fermentation activity: cattle waste slurry of feces, urine and water (50:35:15)
Method: Waste was collected and processed as in Example 1. The waste slurry was divided into 1-liter aliquots and poured into wide-mouth (10 cm) jars (17 cm tall, 13.5 cm diameter, 1.6-liters). The plant oils (carvacrol, thymol and α-pinene) were added to the slurry without stirring or mixing. Plastic lids provided with the jars were used to cover approximately 90% of the jar opening to prevent moisture loss over the 56-day experimental period. A wide mouth pipette was inserted into the slurry from top to bottom at which time slurry contents were simultaneously withdrawn. Total VFA production and butyrate production were measured as described in Example 1.

E. coli O157:H7 = conditions: cited from earlier work; for minimum inhibitory concentration: pure culture system, Helander et al.; for concentration that will kill E. coli O157:H7: Kim et al.
[4] = recovery of added oil from liquid and solid fractions of swine waste, sealed flasks; format: physicochemical
Method: Swine waste was processed similarly to the method described in Example 1. Fecal waste was randomly collected within 15 min of being excreted from animals fed a finishing diet of 85% corn and 11% soybean meal. Swine urine was collected from catheterized animals. Feces, urine, and distilled water in the ratio 50:35:15 were blended (Waring Inc., New Hartford, Conn.) for 1 min. Four replicate samples were obtained from this slurry and analyzed for various parameters and were considered as time 0. […] Gas volume and composition were analyzed in these flasks (anoxic slurry).
A 15-ml waste sample was collected from each flask. The sample was mixed with 15 ml of 0.5 M H2SO4, centrifuged at 2000×g for 20 min at 4° C., and stored at −20° C. until analyzed [Varel, V. H. et al. (1999), J Anim Sci 77:1162-1168]. L-Lactate concentrations were determined with a membrane-immobilized system involving lactate oxidase (Model 27, Yellow Springs Instrument Co., Yellow Springs, Ohio, USA). Short-chain volatile fatty acids (VFAs; acetate, propionate, butyrate, valerate, isobutyrate, isovalerate) and aromatic compounds (cresol, indole, skatole, 4-ethylphenol, phenol) were determined in an aliquot from the original acidified sample. […] Data were analyzed as a split-plot in time with the GLM procedure of (SAS).

Salmonella typhimurium = conditions: pure culture system; Helander et al.; cited from earlier work
[5] = system: total culturable anaerobic bacteria; assay: total culturable anaerobic bacteria in swine waste, open jars; format: cell-based; conditions: 13.3 mM and 20 mM; within 2 days versus controls (P<0.05); sustained for 28 days
Method: (§2) Swine waste was collected and processed into a slurry as in Example 3. As in Example 2, the slurry was added to wide-mouth (10 cm) jars (17 cm tall, 13.5 cm in diameter, 1.6-liter volume) with the test antimicrobial additives, and plastic lids were placed to cover approximately 90% of the jar opening to prevent moisture loss over the experimental period. The sampling procedure was similar to that described above in Example 3, except no stirring or mixing occurred before the contents were sampled, and treatments were in triplicate.
(§3) Fecal coliforms were enumerated with 3 M Petrifilm Escherichia coli coliform count plates (3 M Microbiology Products, St. Paul, Minn.). Both of the carvacrol treatments reduced (P<0.05) the number of viable anaerobic bacteria in the waste within 2 days when compared to the controls (Table 2). This effect was sustained for 28 days. The initial decrease in the concentrations of anaerobic bacteria from day 0 to 2 in the control is presumably because VFAs increase in this batch system and become lethal to a select population of organisms.

fecal coliforms = fecal coliforms in swine waste, open jars; format: cell-based
Method: as §2, §3

stored swine waste [6] = assay: VFA production from swine waste in open jars; format: cell-based
Method: as §1, with “analyzed.” for “analyzed. To determine carvacrol and thymol concentrations, an aliquot of the original acidified sample which was not centrifuged, was treated as indicated above and extracted with ether twice.”, “Compounds were separated on a 30 m×0.32 mm diameter (0.5 μm film thickness) Innowax PEG column using the following program parameters: flow rate was 1.9 ml min^−1, initial temperature was 140° C., initial time was 3 min with a temperature ramp of 7.5° C. min^−1, with a final temperature of 230° C. for 4 min. Injector and detector temperatures were 250° C.” left out, “(SAS). […]” for “(SAS).”

Structure (SMILES) | L-lactate production (stored cattle waste [1]) | methane detected (stored swine waste [2]) | gas production (stored swine waste [2]) | production of propionate (stored swine waste [2]) | production of valerate, isovalerate, isobutyrate and cresol (stored swine waste [2]) | lactate accumulation (stored swine waste [2]) | concentration required to suppress most fermentation activity (stored swine waste [2]) | production of short-chain volatile fatty acids (stored cattle waste [3]) | concentration that suppressed essentially all fermentation activity (stored cattle waste [3]) | minimum inhibitory concentration (E. coli O157:H7) | minimum inhibitory concentration (Salmonella typhimurium) | other results
C=CCc1ccc(O)c(OC)c1 [eugenol] | stimulates L-lactate production | – | – | – | – | – | – | – | – | – | – | control of total VFA production compared to 2000 ppm (13.3 mM) thymol (stored cattle waste [1]; 2000 or 2500 ppm (13.3 or 16 mM), 42-day period): equally or more effective; inhibition of VFA production, dependence (stored cattle waste [1]; various concentrations): concentration dependent
Cc1ccc(C(C)C)c(O)c1 [thymol] | inhibits production of L-lactate | Trace amounts | essentially stopped most gas production | inhibited | prevented any production | accumulated | 16.75 mM | equally or slightly better | 13.3 mM | 3000 µM (≈ 451 µg/mL) | 1000 µM (≈ 150 µg/mL) | thymol recovered from the liquid or supernatant fraction ([4]; % of added, swine waste): less than 25%
Cc1ccc(C(C)C)cc1O [carvacrol] | – | Trace amounts | essentially stopped most gas production | inhibited | prevented any production | accumulated | 16.75 mM | equally or slightly better | 13.3 mM | 3000 µM (≈ 451 µg/mL) | 1000 µM (≈ 150 µg/mL) | number of viable anaerobic bacteria [5]: reduced; concentration that will kill E. coli O157:H7 (E. coli O157:H7): 500 µg/mL; concentration that will kill E. coli O157:H7 (E. coli O157:H7; value in brackets): 3.3 mM; fecal coliforms (fecal coliforms; 13.3 mM, at 14 days): none were detected; fecal coliforms (fecal coliforms; 13.3 mM, within 2 days (P<0.01)): reduced; fecal coliforms (fecal coliforms; 20 mM, after 2 days): No fecal coliforms were detected; recoveries compared with thymol ([4]; sealed flasks): similar; effect of dissolving in ethanol on ability to inhibit VFA production (stored swine waste [6]; dissolved in ethanol before addition (P>0.05)): no effect; production of VFAs (stored swine waste [6]; three concentrations (P<0.01), open jars): inhibited the production of VFAs
